The values that follow come from patent publication US4740505A, “Pyridazinyloxy (or thio) phenyl phosphates” (priority 1985, dated 1988).

Read-outs that look alike come from different tables or passages of the source.

Series [1] concerns Tetranychus urticae. Put plainly: Effectiveness on Tetranychus urticae (rating of effects on kidney bean seedlings). In kind it is in vivo. The note with it: 500 ppm, 20 ml, rating based on percent decrease; for Rating of effect Day-2: 2nd day after treatment; for Rating of effect Day-7: 7th day after treatment. The procedure:
Effectiveness on Tetranychus urticae
Each of the compounds listed in the following table is processed into an emulsifiable concentrate in accordance with the formulation of Example 6. The emulsifiable concentrate is diluted with water (Dyne®, a spreading agent produced by Takeda Chemical Ind. Ltd., as diluted 3,000-fold) to prepare a 500 ppm aqueous solution. Ten female adult of Tetranychus urticae are put into each kidney been seedling raised in a jiffy pot (6 cm in diameter), and left in a glass house at 28° C. for 24 hours. Each pot is taken out of the glass house; 20 ml of the aqueous solution as prepared above is spread over each kidney bean seedling. The jiffy pots are laid in the glass house again. Larvae and adult which are alive on the leaves are counted at the 2nd and 7th days after the spreading treatment. The test is repeated two times. The degrees are determined on the basis of percent decrease.

The nature of series [2]: Toxicological test: oral acute toxicity in mice. Also on record: species or system mice (ddY-SLC strained male). Particulars: mouse, in vivo, five-week aged ddY-SLC male mice.
Series [3] has as its system Spodoptera litura. Put plainly: Effectiveness on Spodoptera litura (mortality of 3rd instar larvae on sprayed soybean leaves). The class given is in vivo. The method, then: Effectiveness of Spondoptera litura
Each of the test compounds listed in the following table is processed into an emulsifiable concentrate in accordance with the formulation of Example 6. The emulsifiable concentrate is diluted with water (Dyne®, a spreading agent produced by Takeda Chemical Ind. Ltd., as diluted 3,000-fold) to prepare a 100 ppm aqueous solution.
Using a spray gun (nozzle pressure of 1 kg/cm^2 gauge), 20 ml of the aqueous 100 ppm solution is sprayed over soybean seedlings in a spraying chamber (on 10th day after germination) which have been raised in jiffy pots (6 cm in diameter). Two main leaves are respectively cut off from the seedlings 2 hours and 6 days after the spraying. Each of the leaves is put into an ice cream cup (diameter: 6 cm, depth: 4 cm), and 10 larvae of Spodoptera litura at the 3rd instar are put into each of the cups. The cups are left in a room at 25° C.; after 48 hours, dead larvae are counted. The test is repeated two times. The results are shown in terms of mortality (%) in Table 6. [formula]
The following compounds are used for controls.
The same compounds are used for controls also in the following Test Examples.

The mark [4] stands for this setting: 100 ppm spray, leaves cut 6 days after spraying, dead larvae counted after 48 hours, 25° C., read-out: Mortality 6th day after spraying.
Where [5] appears, read: 48 h, read-out: Mortality 2 hours after spraying.

A word on the LD50: it is the dose expected to kill half of the subjects tested. By mortality is commonly meant the share of the test organisms that died. With `CCCSP(=O)(OCC)Oc1ccc(Sc2ccc(Cl)nn2)cc1` (stereo not shown) [Compound No. 4], in series [1], the “Rating of effect Day-2” value is recorded as 3 (≥90) and the “Rating of effect Day-7” value is 3 (≥90). In addition, the LD50 in series [2] is > 300 mg/kg. Besides, in series [3] (setting [4]), the mortality at 100 ppm amounted to 95%. In series [3] (setting [5]), the mortality at 100 ppm was found to be 100%.
Turning to `CCCSP(=S)(OCC)Oc1ccccc1Oc1ccc(Cl)nn1` (stereo not shown) [Compound No. 30, O-Ethyl-S-n-propyl-O-[2-(3-chloropyridazinyl-6-oxy)phenyl]phosphorodithioate], the “Rating of effect Day-2” value in series [1] was 3 (≥90). The “Rating of effect Day-7” value in series [1] was 3 (≥90). In addition, the LD50 in series [2] is > 300 mg/kg. Besides, the mortality at 100 ppm in series [3] (setting [4]) and in series [3] (setting [5]) was 100% each time.
As to `CCCSP(=O)(OCC)Oc1ccccc1Oc1ccc(OC)nn1` (stereo not shown) [Compound No. 39, O-Ethyl-S-n-propyl-O-[2-(3-methoxypyridazinyl-6-oxy)phenyl]phosphorothioate], the “Rating of effect Day-2” value in series [1] is on record as 3 (≥90). In addition, in series [1], the “Rating of effect Day-7” value is given as 3 (≥90). For the same molecule, the LD50 in series [2] is ~300 mg/kg. Moreover, the mortality at 100 ppm in series [3] (setting [4]) and in series [3] (setting [5]) was 100% each time.
For `CCCSP(=S)(OCC)Oc1ccccc1Oc1ccc(OC)nn1` (stereo not shown) [Compound No. 40], in series [1], the “Rating of effect Day-2” value is 3 (≥90). Moreover, the “Rating of effect Day-7” value in series [1] is 3 (≥90). The median lethal dose (LD50) in series [2] was > 300 mg/kg. Also, the mortality at 100 ppm in series [3] (setting [4]) and in series [3] (setting [5]) was 100% throughout.
Consider `CCCSP(=S)(OCC)Oc1ccc(Oc2ccc(Cl)nn2)c(C)c1` (stereo not shown) [compound 16], for which, in series [1], the “Rating of effect Day-2” value is 3 (≥90). The “Rating of effect Day-7” value in series [1] is on record as 3 (≥90). Moreover, the LD50 in series [2] was > 300 mg/kg. The mortality at 100 ppm in series [3] (setting [4]) and in series [3] (setting [5]) was 100% throughout.
In the case of `CCCSP(=O)(OCC)Oc1cccc(Oc2ccc(Cl)nn2)c1` (stereo not shown) [compound 18], in series [1], the “Rating of effect Day-2” value was 3 (≥90) and the “Rating of effect Day-7” value was 3 (≥90). The LD50 in series [2] was > 300 mg/kg. The mortality at 100 ppm in series [3] (setting [4]) is 100%. In addition, in series [3] (setting [5]), the mortality at 100 ppm stood at 100%.
In the case of `CCCSP(=O)(OCC)Oc1cccc(Sc2ccc(Cl)nn2)c1` (stereo not shown) [compound 19], in series [1], the “Rating of effect Day-2” value is reported as 3 (≥90) and the “Rating of effect Day-7” value is on record as 3 (≥90). The LD50 in series [2] was > 300 mg/kg. The mortality at 100 ppm in series [3] (setting [4]) was determined as 90%. The mortality at 100 ppm in series [3] (setting [5]) worked out at 100%.
On to `CCCSP(=S)(OCC)Oc1cccc(Sc2ccc(Cl)nn2)c1` (stereo not shown) [compound 20], for which the “Rating of effect Day-2” value in series [1] is recorded as 3 (≥90). In addition, the “Rating of effect Day-7” value in series [1] is recorded as 3 (≥90). Also, the LD50 in series [2] is > 300 mg/kg. Moreover, the mortality at 100 ppm came out at 90% in series [3] (setting [4]) and 100% in series [3] (setting [5]).
Turning to `CCCSP(=O)(OCC)Oc1ccccc1Oc1ccc(Br)nn1` (stereo not shown) [compound 24], the “Rating of effect Day-2” value in series [1] is on record as 3 (≥90). Besides, the “Rating of effect Day-7” value in series [1] is 3 (≥90). In addition, in series [2], the LD50 is ~300 mg/kg. The mortality at 100 ppm in series [3] (setting [4]) and in series [3] (setting [5]) was 100% in each case.
For `CCCSP(=S)(OCC)Oc1ccccc1Oc1ccc(Br)nn1` (stereo not shown) [compound 25], in series [1], the “Rating of effect Day-2” value was 3 (≥90) and the “Rating of effect Day-7” value is recorded as 3 (≥90). The LD50 in series [2] is > 300 mg/kg. Besides, the mortality at 100 ppm in series [3] (setting [4]) was 100%. Also, the mortality at 100 ppm in series [3] (setting [5]) turned out to be 100%.
Take `CCCSP(=O)(OCC)Oc1ccccc1Sc1ccc(Br)nn1` (stereo not shown) [compound 26]: the “Rating of effect Day-2” value in series [1] is listed as 3 (≥90). Moreover, in series [1], the “Rating of effect Day-7” value was 3 (≥90). For the same molecule, in series [2], the LD50 was ~300 mg/kg. The mortality at 100 ppm in series [3] (setting [4]) was 95%; in series [3] (setting [5]), 100%.
`CCCSP(=S)(OCC)Oc1ccccc1Oc1ccc(C)nn1` (stereo not shown) [compound 38]: in series [1], the “Rating of effect Day-2” value was 3 (≥90) and the “Rating of effect Day-7” value is reported as 3 (≥90). In series [2], the LD50 was > 300 mg/kg. The mortality at 100 ppm in series [3] (setting [4]) was 100%. Further, in series [3] (setting [5]), the mortality at 100 ppm was 100%.
Take `CCCSP(=O)(OCC)Oc1ccccc1Oc1ccc(SCC)nn1` (stereo not shown) [compound 41]: in series [1], the “Rating of effect Day-2” value is reported as 3 (≥90) and the “Rating of effect Day-7” value is given as 3 (≥90). Further, the LD50 in series [2] was ~300 mg/kg. For the same molecule, the mortality at 100 ppm in series [3] (setting [4]) amounted to 100%. Moreover, in series [3] (setting [5]), the mortality at 100 ppm came out at 100%.
For the molecule `CCCSP(=S)(OCC)Oc1ccccc1Oc1ccc(SCC)nn1` (stereo not shown) [compound 42], in series [1], the “Rating of effect Day-2” value is reported as 3 (≥90) and the “Rating of effect Day-7” value is 3 (≥90). For the same molecule, the LD50 in series [2] is > 300 mg/kg. In addition, the mortality at 100 ppm in series [3] (setting [4]) was found to be 100%. In series [3] (setting [5]), the mortality at 100 ppm was found to be 100%.
